Experimental data reported in patent publication US20200055839A1 (priority 2017, published 2020).
pEC50: −log10 of the molar value.

Test system: NL-RLuc virus
Assay: Inhibition of HIV replication (NL-RLuc virus, luciferase readout in MT-2 cells)
Assay type: cell-based
Details: Human immunodeficiency virus 1, MT2, 120 h, MT-2 cells infected with NL-RLuc virus, 5 days of incubation, 10% FBS, at least 2 experiments
How it was run: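 EC50 derived via median effect equation from at least 2 experiments, using luciferase expression as virus-growth readout. Replication-competent NL-RLuc reporter virus (nef partly replaced by Renilla luciferase) infected MT-2 cells with serial compound dilutions; 5-day incubation in RPMI 1640 plus 10% FBS.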

Structure (SMILES) | pEC50
Cc1n[nH]cc1-c1nc(C)c([C@H](OC(C)(C)C)C(=O)O)c(N2CCC(C)(C)CC2)c1-c1ccc(OCCc2ccc(F)cc2)cc1 [Example 38, (S)-2-(tert-Butoxy)-2-(4-(4,4-dimethylpiperidin-1-yl)-5-(4-(4-fluorophenethoxy)phenyl)-2-methyl-6-(3-methyl-1H-pyrazol-4-yl)pyridin-3-yl)acetic acid] | 8.10
Cc1nc(-c2ccn(C)c2)c(-c2ccc(OCCc3ccc(F)cc3)cc2)c(N2CCC(C)(C)CC2)c1[C@H](OC(C)(C)C)C(=O)O [Example 48, (S)-2-(tert-Butoxy)-2-(4-(4,4-dimethylpiperidin-1-yl)-5-(4-(4-fluorophenethoxy)phenyl)-2-methyl-6-(1-methyl-1H-pyrrol-3-yl)pyridin-3-yl)acetic acid] | 8.52
Cc1ncc(-c2ccc(OCCc3ccccc3F)cc2)c(N2CCC(C)(C)CC2)c1[C@H](OC(C)(C)C)C(=O)O [Example 259, (S)-2-(tert-Butoxy)-2-(4-(4,4-dimethylpiperidin-1-yl)-5-(4-(2-fluorophenethoxy)phenyl)-2-methylpyridin-3-yl)acetic acid] | 9.00
Cc1ncc(-c2cncc(F)c2)c(N2CCC(C)(C)CC2)c1[C@H](OC(C)(C)C)C(=O)O [Example 148, (2S)-2-(tert-Butoxy)-2-[4-(4,4-dimethylpiperidin-1-yl)-5′-fluoro-6-methyl-[3, 3′-bipyridine]-5-yl]acetic acid] | 8.15
Cc1ncc(-c2ccc(OCCc3c(F)cc(F)cc3F)cn2)c(N2CCC(C)(C)CC2)c1[C@H](OC(C)(C)C)C(=O)O [Example 298, (2S)-2-(tert-butoxy)-2-[4′-(4,4-dimethylpiperidin-1-yl)-6′-methyl-5-[2-(2,4,6-trifluorophenyl)ethoxy]-[2,3′-bipyridine]-5′-yl]acetic acid] | 9.00
Cc1nc(Nc2cnn(C)c2)c(-c2ccc(OCCc3ccc(F)cc3)cc2)c(N2CCC(C)(C)CC2)c1[C@H](OC(C)(C)C)C(=O)O [Example 87, (S)-2-(tert-Butoxy)-2-(4-(4,4-dimethylpiperidin-1-yl)-5-(4-(4-fluorophenethoxy)phenyl)-2-methyl-6-((1-methyl-H-pyrazol-4-yl)amino)pyridin-3-yl)acetic acid] | 8.70
Cc1nc(-n2cncc2C)c(-c2ccc(OCCc3ccc(F)cc3)cc2)c(N2CCC(C)(C)CC2)c1[C@H](OC(C)(C)C)C(=O)O (single isomer, unassigned) [Example 55] | 8.52
Cc1ncc(-c2cnc(O[C@@H](C)Cc3ccccc3)c(F)c2)c(N2CCC(C)(C)CC2)c1[C@H](OC(C)(C)C)C(=O)O [Example 379, (2S)-2-(tert-butoxy)-2-[4-(4,4-dimethylpiperidin-1-yl)-5′-fluoro-6-methyl-6′-{[(2S)-1-phenylpropan-2-yl]oxy}-[3,3′-bipyridine]-5-yl]acetic acid] | 8.70
Cc1ncc(-c2ccc(OCCc3ccc(F)c(F)c3)cn2)c(N2CCC(C)(C)CC2)c1[C@H](OC(C)(C)C)C(=O)O [Example 299, (2S)-2-(tert-butoxy)-2-{5-[2-(3,4-difluorophenyl)ethoxy]-4′-(4,4-dimethylpiperidin-1-yl)-6′-methyl-[2,3′-bipyridine]-5′-yl}acetic acid] | 9.00
Cc1ncc(-c2cnc(OCC(C)(C)c3ccccc3)c(F)c2)c(N2CCC(C)(C)CC2)c1[C@H](OC(C)(C)C)C(=O)O [Example 402, (2S)-2-(tert-butoxy)-2-[4-(4,4-dimethylpiperidin-1-yl)-5′-fluoro-6-methyl-6′-(2-methyl-2-phenylpropoxy)-[3,3′-bipyridine]-5-yl]acetic acid] | 8.52
Cc1ncc(-c2ccc(OCc3ncnc4c3oc3ccccc34)cc2)c(N2CCC(C)(C)CC2)c1[C@H](OC(C)(C)C)C(=O)O [Example 19, (2S)-2-(tert-Butoxy)-2-[4-(4,4-dimethylpiperidin-1-yl)-2-methyl-5-[4-({8-oxa-3,5-diazatricyclo[7.4.0.0^2,7]trideca-1(9), 2(7), 3,5,10,12-hexaen-6-yl}methoxy)phenyl]pyridin-3-yl]acetic acid] | 8.40
CCC(C)(C)O[C@H](C(=O)O)c1c(C)ncc(-c2ncc(OCCc3ccc(F)cc3)cn2)c1N1CCC(C)(C)CC1 [Example 247, (S)-2-(4-(4,4-Dimethylpiperidin-1-yl)-5-(5-(4-fluorophenethoxy)pyrimidin-2-yl)-2-methylpyridin-3-yl)-2-(tert-pentyloxy)acetic acid] | 9.10
Cc1nc(Nc2ccccc2)c(-c2ccc(OCCc3ccc(F)cc3)cc2)c(N2CCC(C)(C)CC2)c1[C@H](OC(C)(C)C)C(=O)O [Example 67, (S)-2-(tert-Butoxy)-2-(4-(4,4-dimethylpiperidin-1-yl)-5-(4-(4-fluorophenethoxy)phenyl)-2-methyl-6-(phenylamino)pyridin-3-yl)acetic acid] | 7.57
Cc1ncc(-c2cnc(OCCc3cccc(F)c3)c(Cl)c2)c(N2CCC(C)(C)CC2)c1[C@H](OC(C)(C)C)C(=O)O [Example 251, (S)-2-(tert-Butoxy)-2-(5′-chloro-4-(4,4-dimethylpiperidin-1-yl)-6′-(3-fluorophenethoxy)-6-methyl-[3, 3′-bipyridin]-5-yl)acetic acid] | 8.70
COc1cnc(-c2cnc(C)c([C@H](OC(C)(C)C)C(=O)O)c2N2CCC(C)(C)CC2)nc1 [Example 228, (S)-2-(tert-Butoxy)-2-(4-(4,4-dimethylpiperidin-1-yl)-5-(5-methoxypyrimidin-2-yl)-2-methylpyridin-3-yl)acetic acid] | 7.28
Cc1nc(-n2cccn2)c(-c2ccc(OCCc3ccc(F)cc3)cc2)c(N2CCC(C)(C)CC2)c1[C@H](OC(C)(C)C)C(=O)O [Example 62, (S)-2-(tert-Butoxy)-2-(4-(4,4-dimethylpiperidin-1-yl)-5-(4-(4-fluorophenethoxy)phenyl)-2-methyl-6-(1H-pyrazol-1-yl)pyridin-3-yl)acetic acid] | 8.52
Cc1ncc(-c2ncccn2)c(N2CCC(C)(C)CC2)c1[C@H](OC(C)(C)C)C(=O)O [Example 187, (2S)-2-(tert-Butoxy)-2-[4-(4,4-dimethylpiperidin-1-yl)-2-methyl-5-(pyrimidin-2-yl)pyridin-3-yl]acetic acid] | 6.97
Cc1nc(-n2ccnc2)c(-c2ccc(OCCc3ccc(F)cc3)cc2)c(N2CCC(C)(C)CC2)c1[C@H](OC(C)(C)C)C(=O)O [Example 45, (S)-2-(tert-Butoxy)-2-(4-(4,4-dimethylpiperidin-1-yl)-5-(4-(4-fluorophenethoxy)phenyl)-6-(1H-imidazol-1-yl)-2-methylpyridin-3-yl)acetic acid] | 8.40
Cc1ncc(-c2ccc(OCc3c(Cl)cccc3Cl)cn2)c(N2CCC(C)(C)CC2)c1[C@H](OC(C)(C)C)C(=O)O [Example 355, (2S)-2-(tert-butoxy)-2-{5-[(2,6-dichlorophenyl)methoxy]-4′-(4,4-dimethylpiperidin-1-yl)-6′-methyl-[2,3′-bipyridine]-5′-yl}acetic acid] | 9.00
Cc1ncc(-c2ccccc2C#N)c(N2CCC(C)(C)CC2)c1[C@H](OC(C)(C)C)C(=O)O [Example 153, (2S)-2-(tert-Butoxy)-2-[5-(2-cyanophenyl)-4-(4,4-dimethylpiperidin-1-yl)-2-methylpyridin-3-yl]acetic acid] | 7.54
Cc1cc(-c2c(N)nc(C)c([C@H](OC(C)(C)C)C(=O)O)c2N2CCC(C)(C)CC2)cc(C)c1OCCc1ccc(F)cc1 [Example 61, (S)-2-(6-Amino-4-(4,4-dimethylpiperidin-1-yl)-5-(4-(4-fluorophenethoxy)-3,5-dimethylphenyl)-2-methylpyridin-3-yl)-2-(tert-butoxy)acetic acid] | 7.96
Cc1ccc(COc2ccc(-c3cnc(C)c([C@H](OC(C)(C)C)C(=O)O)c3N3CCC(C)(C)CC3)nc2)cc1 [Example 342, (2S)-2-(tert-butoxy)-2-[4′-(4,4-dimethylpiperidin-1-yl)-6′-methyl-5-[(4-methylphenyl)methoxy]-[2,3′-bipyridine]-5′-yl]acetic acid] | 8.70
COc1ccc(-c2cnc(C)c([C@H](OC(C)(C)C)C(=O)O)c2N2CCC(C)(C)CC2)cc1F [Example 179, (2S)-2-(tert-Butoxy)-2-[4-(4,4-dimethylpiperidin-1-yl)-5-(3-fluoro-4-methoxyphenyl)-2-methylpyridin-3-yl]acetic acid] | 8.30
Cc1cc(C)n(-c2nc(C)c([C@H](OC(C)(C)C)C(=O)O)c(N3CCC(C)(C)CC3)c2-c2ccc(OCCc3ccc(F)cc3)cc2)n1 [Example 59, (S)-2-(tert-Butoxy)-2-(6-(3,5-dimethyl-1H-pyrazol-1-yl)-4-(4,4-dimethylpiperidin-1-yl)-5-(4-(4-fluorophenethoxy)phenyl)-2-methylpyridin-3-yl)acetic acid] | 8.52
Cc1ncc(-c2ccccn2)c(N2CCC(C)(C)CC2)c1[C@H](OC(C)(C)C)C(=O)O [Example 186, (2S)-2-(tert-Butoxy)-2-[4′-(4,4-dimethylpiperidin-1-yl)-6′-methyl-[2, 3′-bipyridine]-5′-yl]acetic acid] | 7.43
CC(C)COc1ccc(-c2cnc(CF)c([C@H](OC(C)(C)C)C(=O)O)c2N2CCC(C)(C)CC2)nc1 [Example 278, (S)-2-(tert-Butoxy)-2-(4′-(4,4-dimethylpiperidin-1-yl)-6′-(fluoromethyl)-5-isobutoxy-[2, 3′-bipyridin]-5′-yl)acetic acid] | 8.40
Cc1ncc(-c2ccc(OCCc3ccc(Cl)cc3)cn2)c(N2CCC(C)(C)CC2)c1[C@H](OC(C)(C)C)C(=O)O [Example 309, (2S)-2-(tert-butoxy)-2-{5-[2-(4-chlorophenyl)ethoxy]-4′-(4,4-dimethylpiperidin-1-yl)-6′-methyl-[2,3′-bipyridine]-5′-yl}acetic acid] | 9.40

Same assay, conditions: MT-2 cells infected with NL-RLuc virus, 5 days of incubation, 10% FBS, at least 2 experiments

Structure (SMILES) | pEC50
Cc1nc(C(C)(C)O)c(-c2ccc(OCCc3ccc(F)cc3)c(F)c2)c(N2CCC(C)(C)CC2)c1[C@H](OC(C)(C)C)C(=O)O (single isomer, unassigned) [Example 243] | 8.15
